Read-outs that look alike come from different tables or passages of the source.
Tests used:
hSTINGmut [1] = biological target: T1, hSTINGmut (Homo sapiens, UniProt Q86WV6, G230I/H232R/Q266I/S162A); assay: DMXAA mediated expression of STING-derived cytokines (qPCR); type: cell-based; details: hSTINGmut-transduced MC38 and Hep2G cells; 50 μg/mL DMXAA, 3 h or 6 h
T1 construct: expressed in transfected cells
Method: (§1) As a readout, the expression of STING-derived cytokines was measured by qPCR.
(§2) To this end, MC38 and Hep2G cells have been transduced with lentiviruses encoding luciferase, hSTINGwt, hSTINGmut to obtain stable cell lines as described above or were not transduced with any lentivirus (no vector). Respective cells were seeded in 24-well plates at a density of 750 cells/mm^2 in growth medium. […] Cells were harvested and prepared for qPCR measurements as described above. The expression of the cytokines IFN-β, TNF-α, IL-6, CXCL9 and CXCL10 were measured for either experimental group and expression levels relative to controls (no vector) were quantified.

hSTINGwt = biological target: T2, hSTINGwt (Homo sapiens, UniProt Q86WV6, H232R); assay: as above; type: cell-based; details: other groups (luciferase, hSTINGwt, no vector); 50 μg/mL DMXAA
T2 construct: expressed in transfected cells
Method: as §1, §2

hSTINGmut [2] = biological target: T1, hSTINGmut; assay: Time-course expression of STING-derived cytokines upon DMXAA treatment; type: cell-based; details: MC38 and Hep2G cells encoding hSTINGmut; 50 μg/mL DMXAA; any given timepoint
Method: The objective of this experiment was to examine the time-course of STING-derived cytokine expression upon DMXAA treatment. As a readout, the expression of STING-derived cytokines was measured by qPCR.
To this end, stable cell lines of MC38 and Hep2G cells encoding hSTINGmut have been obtained as described above. […] Cells were harvested and prepared for qPCR measurements as described above.

STING = system: STING
Method: C57 wild type mice, aged 6 to 10 weeks, were injected intravenously with an AAV8 vector encoding either hSTINGmut (AAV8-hSTINGmut, 1×10^11 viral genomes) or as a control GFP (AAV8-GFP, 1.5×10^11 viral genomes).

MC38 cells [3] = assay: Synergism proof of principle I, IFN-β mRNA; type: cell-based, murine
Method: To this end, MC38 cells received 8 Gy or 0 Gy as described above (example 7). Cells were seeded thereafter at 750 cells/mm^2 density and were then either mock-transduced or transduced with AAV8-hSTINGmut (1×10^5 viral genomes/cell). For cell transduction 8.5×10^9 viral genomes of AAV8-hSTINGmut from known concentration stock solutions, were resuspended in 50 μl RPMI 2% FBS. The resuspended viral particles were then added to the wells where the cells were seeded.

MC38 cells [4] = assay: Synergism proof of principle II, IL-12 mRNA; type: cell-based, murine; details: cells transduced with AAV8-hSTINGmut plus AAV8-ISREx4-IL12miR122T
Method: […] The resuspended viral particles were then added to the wells where the cells were seeded. […] The IL-12 mRNA was determined by qPCR as described above (example 3) and expression levels were quantified in reference to non-transduced, non-irradiated cells treated with vehicle.

HEK293 cells = assay: Synergism proof of principle III, IFN-β and IL-12 mRNA; type: cell-based, human; details: for IFN-β expression levels: hSTINGmut expressing HEK293 cells
Method: The IFN-β and the IL-12 mRNA expression levels were determined by qPCR as described above (example 1) and expression levels were quantified in reference to the indicated controls.

[5] = system: native non-transduced MC38 cells; assay: Synergism proof of principle IV, IFN-β protein; type: cell-based, murine
From the text: To this end, native non-transduced MC38 cells received 0 Gy, 2 Gy or 8 Gy as described above.

MC38 tumors = assay: Synergism of DMXAA and radiotherapy in a humanized mouse model in vivo, cytokine levels; parameters: species or system STING KO mice; details: tumor extracts 6 h after DMXAA 20 mg/kg; irradiated
[6] = human, in vivo; cited from earlier work
human STING = human STING (Homo sapiens, UniProt Q86WV6, H232R); details: cited from earlier work
[7] = biological target: hSTING[R]-S162A/G230I/Q266I (Homo sapiens, UniProt Q86WV6, G230I/H232R/Q266I/S162A); details: cited from earlier work
established tumors = details: intratumor injections; STING-dependent; cited from earlier work
[8] = 5 or 10 mg DMXAA/kg, AAV8-hSTINGmut transduced mice

T1 sequence (Q86WV6 whole entry S162A/G230I/H232R/Q266I): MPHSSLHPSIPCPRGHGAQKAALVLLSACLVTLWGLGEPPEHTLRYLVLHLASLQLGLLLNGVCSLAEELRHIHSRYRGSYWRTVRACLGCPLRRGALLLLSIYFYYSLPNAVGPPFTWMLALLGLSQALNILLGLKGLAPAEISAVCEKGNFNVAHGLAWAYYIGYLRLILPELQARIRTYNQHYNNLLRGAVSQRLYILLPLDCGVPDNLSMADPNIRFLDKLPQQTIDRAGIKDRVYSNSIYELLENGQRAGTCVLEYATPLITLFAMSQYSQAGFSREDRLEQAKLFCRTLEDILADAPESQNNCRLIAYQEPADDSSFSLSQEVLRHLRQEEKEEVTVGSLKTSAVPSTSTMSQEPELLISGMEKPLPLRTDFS
T2 sequence (Q86WV6 whole entry H232R): as the sequence (Q86WV6 whole entry S162A/G230I/H232R/Q266I) above, with A162S, I230G, I266Q counted along it
Chain of human STING (Q86WV6 whole entry H232R): as the sequence (Q86WV6 whole entry S162A/G230I/H232R/Q266I) above, with A162S, I230G, I266Q counted along it
Chain of hSTING[R]-S162A/G230I/Q266I (Q86WV6 whole entry S162A/G230I/H232R/Q266I): as the sequence (Q86WV6 whole entry S162A/G230I/H232R/Q266I) above

Cc1ccc2c(=O)c3cccc(CC(=O)O)c3oc2c1C [DMXAA, 5,6-Dimethylxanthenone-4-acetic acid]
expression of cytokines IFN-β, TNF-α, IL-6, CXCL9 and CXCL10 (hSTINGmut [1]): elevated
expression of cytokines IFN-β, TNF-α, IL-6, CXCL9 and CXCL10 (hSTINGwt): no significant alteration
time-course of STING-derived cytokine expression (hSTINGmut [2]): increase in expression levels
IFN-β levels in serum (STING; 20 mg DMXAA/kg i.p., AAV8-GFP transduced control animals, 3 h after injection): elevation of IFN-β levels
toxicity and mortality (STING; 20 mg DMXAA/kg repeated, AAV8-GFP and AAV8-hSTINGmut mice (systemic STING stimulation)): high toxicity and mortality
IFN-β levels in serum (STING; [8]): only very low levels
toxicity and mortality (STING; [8]): neither cause significant toxicity nor mortality
IFN-β mRNA expression (MC38 cells [3]; hSTINGmut-transduced MC38, 8 Gy, DMXAA 50 μg/mL 6 h): further increased
IFN-β mRNA expression (MC38 cells [3]; hSTINGmut-transduced MC38, no irradiation, DMXAA): intermediate expression
IFN-β mRNA expression (MC38 cells [3]; non-transduced MC38, 8 Gy, DMXAA 50 μg/mL 6 h): increase in IFN-β expression
IL-12 mRNA levels (MC38 cells [4]; irradiated with 8 Gy): strong elevation
IL-12 mRNA levels (MC38 cells [4]; non-irradiated): slight elevation
IL-12 expression levels (HEK293 cells; HEK293 cells expressing ISREx4-IL12miR122T, radiation and further DMXAA treatment): significant increase in IL-12 expression levels
IFN-β expression levels (HEK293 cells; DMXAA 50 μg/mL): upregulated
IFN-β expression levels (HEK293 cells; DMXAA plus additional irradiation 8 Gy): significantly increased
IFN-β production (ELISA) ([5]; 8 Gy plus DMXAA at different doses, 24 h or 48 h): exceeding the sum of those obtained with radiation alone and DMXAA alone
IFN-β production (ELISA) ([5]; single dose 8 Gy, DMXAA 50 μg/mL 24 h later, collected after another 24 h): enhanced
intratumor levels of IL-12 (MC38 tumors): increased significantly
efficacy in clinical trials [6]: lack of efficacy
tolerability in clinical trials [6]: well tolerated and only displayed minor side effects
activation of human STING (human STING): unable to activate
activation of hSTING[R]-S162A/G230I/Q266I [7]: highly activated
CD8+ T cell priming and tumor elimination (established tumors): effectively prime CD8+ T cell responses and promote elimination of the established tumors

Reference: patent publication US20250188143A1, “COMBINED GENE AND RADIO THERAPY FOR THE TREATMENT OF CANCER” (FUNDACION PARA LA INVESTIGACION MEDICA APLICADA, priority 2022, published 2025)
